Reference: patent US20240254138A1, “TRICYCLIC PYRIMIDINES AS CYCLIN-DEPENDENT KINASE 7 (CDK7) INHIBITORS” (JANSSEN PHARMACEUTICA NV, priority 2021, published 2024)
Read-outs that look alike come from different tables or passages of the source.

Key:
[1] = test system: RNA Polymerase II Serine 5 phosphorylation (Rpb1 CTD, downstream substrate of CDK7) in A549 cells; test: Imaging-based cellular RNA PolII Ser5 phosphorylation assay in A549 cells; format: cell-based, human; settings: Homo sapiens, A549, A549 cells, wild-type CDK7; RNA PolII Ser5 phosphorylation; averaged over all measurements; read-out: CDK7_A549 Wild-type CDK7 (pIC50) (converted)
Method in brief: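 IC50 derived by fitting % control (DMSO high, 10 μM reference low) against concentration, with Hill slope. Readout: high-content imaging of phospho-Ser5 Rpb1 CTD antibody staining in fixed, permeabilized A549 cells exposed to compound 3 h after 20 h culture in 1% FBS DMEM.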

[2] = test system: RNA Polymerase II Serine 5 phosphorylation in A549 cells overexpressing CDK7-mutant (C312S); test: Imaging-based cellular RNA PolII Ser5 phosphorylation assay in A549 cells overexpressing CDK7-mutant (C312S); format: cell-based, human; settings: Homo sapiens, A549, A549 cells overexpressing CDK7-mutant (C312S); RNA PolII Ser5 phosphorylation; averaged over all measurements; read-out: CDK7_A549 mutant hCDK7(pIC50) (converted)
Method in brief: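 Readout was automated imaging of anti-phospho-Ser5 Rpb1 CTD immunofluorescence, with IC50 fitted to % control versus concentration. Cells were A549 stably overexpressing non-covalently targetable CDK7 C312S alongside wild-type, exposed to compound 3 h at 37 °C. DMSO and 10 μM reference compound served as controls.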

[3] = molecular target: CDK7/cyclinH/MAT1 trimeric complex (Homo sapiens, UniProt P50613); test: In vitro CDK7 assay, potency of irreversible covalent inhibitors (kinact/KI), coupled PK/LDH ADP readout at 340 nm; settings: for Ki: CDK7 (20 nM enz.) (KI, μM); for kinact: read-out: CDK7 (20 nM enz.) (kinact, s^−1), 20 nM enzyme
[4] = read-out: CDK7 (20 nM enz.) (kobs/[I], M^−1*s^−1), 20 nM enzyme
[5] = read-out: CDK7 (20 nM enz.) (kinact/KI, M^−1*s^−1), 20 nM enzyme

Sequence of CDK7/cyclinH/MAT1 trimeric complex (P50613 whole entry): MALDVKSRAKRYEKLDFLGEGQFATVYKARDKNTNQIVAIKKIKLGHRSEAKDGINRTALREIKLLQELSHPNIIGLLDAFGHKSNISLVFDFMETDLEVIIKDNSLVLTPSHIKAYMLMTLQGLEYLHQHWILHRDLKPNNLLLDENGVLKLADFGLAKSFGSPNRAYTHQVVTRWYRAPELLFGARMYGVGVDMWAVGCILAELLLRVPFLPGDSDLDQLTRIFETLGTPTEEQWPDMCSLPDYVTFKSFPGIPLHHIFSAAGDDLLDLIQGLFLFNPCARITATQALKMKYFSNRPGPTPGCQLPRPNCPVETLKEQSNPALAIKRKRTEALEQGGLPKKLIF
Sequence of CDK7/cyclinH/MAT1 trimeric complex (P51946 whole entry partner): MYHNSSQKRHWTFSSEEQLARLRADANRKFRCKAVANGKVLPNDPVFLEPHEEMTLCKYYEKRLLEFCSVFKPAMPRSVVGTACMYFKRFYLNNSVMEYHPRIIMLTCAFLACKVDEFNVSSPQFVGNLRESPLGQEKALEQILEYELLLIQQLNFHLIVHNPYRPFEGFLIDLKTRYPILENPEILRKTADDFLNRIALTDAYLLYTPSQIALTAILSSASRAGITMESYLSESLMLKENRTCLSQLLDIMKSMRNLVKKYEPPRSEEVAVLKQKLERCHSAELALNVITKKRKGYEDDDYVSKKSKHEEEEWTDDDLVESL
Sequence of CDK7/cyclinH/MAT1 trimeric complex (P51948 whole entry partner): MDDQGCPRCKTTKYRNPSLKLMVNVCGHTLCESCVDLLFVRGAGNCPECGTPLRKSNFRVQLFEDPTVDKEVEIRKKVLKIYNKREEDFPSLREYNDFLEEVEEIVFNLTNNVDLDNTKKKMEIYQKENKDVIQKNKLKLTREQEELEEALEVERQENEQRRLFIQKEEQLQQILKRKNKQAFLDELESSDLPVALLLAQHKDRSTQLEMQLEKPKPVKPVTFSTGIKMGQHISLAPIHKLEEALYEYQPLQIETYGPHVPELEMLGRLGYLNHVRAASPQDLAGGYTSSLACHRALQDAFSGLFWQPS

| SMILES | IC50 [1] | IC50 [2] | kinact/KI [3, 4] | Ki ([3]; 20 nM enzyme) | kinact [3] | kinact/KI [3, 5] | CDK7 (20 nM enz.) (kinact, s^−1) ([3]; 20 nM enzyme) | CDK7 (20 nM enz.) (kinact/KI, M^−1*s^−1) ([3]; 20 nM enzyme) |
| --- | --- | --- | --- | --- | --- | --- | --- | --- |
| C=CC(=O)N1CC[C@H](N2CC(c3cc(C)c4c(c3)Nc3nccc(N5CCOCC5)c3[C@@H](C)O4)C2)C1 (single isomer, unassigned) [Compound 239] | 43.7 nM | 7080 nM | 1040 M⁻¹ s⁻¹ |  |  |  |  |  |
| CC#CC(=O)N1CCC(N2CC[C@@H](c3cc4c(c(C)n3)OCc3c(N5CCOCC5)ccnc3N4)C2)CC1 (single isomer, unassigned) [Compound 433] | 170 nM | 5370 nM |  | 0.185 µM | 1.89e-05 s⁻¹ | 102 M⁻¹ s⁻¹ |  |  |
| C=CC(=O)N=S1(=O)CCN(c2ccnc3c2COc2ccc(C4CCN(C5CN(C(=O)C=C)C5)CC4)cc2N3)CC1 [Compound 94] | > 10000 nM | > 10000 nM |  | 3.37 µM | 3.79e-05 s⁻¹ | 11.2 M⁻¹ s⁻¹ |  |  |
| C=CC(=O)N1CC(N2CCC(c3ccc4c(c3)Nc3nccc(C5CCOCC5)c3[C@@H](C)O4)CC2)C1 (single isomer, unassigned) [Compound 97] | 66.1 nM | > 10000 nM | 1510 M⁻¹ s⁻¹ | 0.0627 µM | 0.00011 s⁻¹ | 1760 M⁻¹ s⁻¹ |  |  |
| C=CC(=O)N1CC(N2CC(c3cc4c(c(C)n3)O[C@@H](C)c3c(C5CCOCC5)ccnc3N4)C2)C1 (single isomer, unassigned) [Compound 480] | 4570 nM | > 10000 nM |  |  |  | 2.97 M⁻¹ s⁻¹ |  |  |
| C=CC(=O)N1CC(N2CC[C@H](c3ccc4c(c3)Nc3nccc(N5CCOCC5)c3CO4)[C@@H](F)C2)C1 [Compound 110] | 257 nM | > 10000 nM |  | 0.23 µM |  |  | 5.833e-05 s⁻¹ | 253.792 M⁻¹ s⁻¹ |
| C=CC(=O)N1CC(N2CCC(c3cc4c(cc3C#N)OCc3c(N5CCOCC5)ccnc3N4)CC2)C1 [Compound 174] | 324 nM | > 10000 nM |  | 0.143 µM | 5.74e-05 s⁻¹ | 401 M⁻¹ s⁻¹ |  |  |
| C=CC(=O)N1CC(N2CCN(c3cc4c(cn3)OCc3c(N5CCOCC5)ccnc3N4)CC2)C1 [Compound 248] | 174 nM | > 10000 nM |  | 0.307 µM | 8.51e-05 s⁻¹ | 277 M⁻¹ s⁻¹ |  |  |
| C=CC(=O)N1CCC(N2CC(c3cc(Cl)c4c(c3)Nc3nccc(C5CCOCC5)c3CO4)C2)CC1 [Compound 148] | 37.2 nM | 5500 nM |  | 0.0507 µM | 3.38e-05 s⁻¹ | 666 M⁻¹ s⁻¹ |  |  |
| C=C(F)C(=O)N1CC(N2CCC(c3cc4c(c(C)n3)OCc3c(-c5cnn(C)c5)ccnc3N4)CC2)C1 [Compound 539] | 1320 nM | > 10000 nM |  | 0.0196 µM |  |  |  |  |
| C=CC(=O)N1CC(N2CC[C@@H](c3ccc4c(c3)Nc3nccc(N5CCOCC5)c3CO4)[C@@H](O)C2)C1 (mixture of isomers) [Compound 228] | 178 nM | > 10000 nM |  | 0.129 µM | 6.25e-05 s⁻¹ | 486 M⁻¹ s⁻¹ |  |  |
| C=CC(=O)N1CC(N2CCC(O)(c3ccc4c(c3)Nc3nccc(N5CCOCC5)c3C(C)O4)CC2)C1 (stereo not shown) [Compound 154] | 117 nM | > 10000 nM |  | 0.137 µM | 5.98e-05 s⁻¹ | 438 M⁻¹ s⁻¹ |  |  |
| C=CC(=O)N1CC[C@@H](N2CC(c3cc4c(c(C)n3)OCc3c(-c5cnn(C)c5)ccnc3N4)C2)C1 (single isomer, unassigned) [Compound 204] | 339 nM | > 10000 nM |  | 0.352 µM | 3.71e-05 s⁻¹ | 105 M⁻¹ s⁻¹ |  |  |
| C=CC(=O)N1CC(N2CCC(c3cc(Cl)c4c(c3)Nc3nccc(N5CCS(=O)(=O)CC5)c3CO4)CC2)C1 [Compound 103] | 126 nM | > 10000 nM |  | 0.0424 µM | 8.56e-05 s⁻¹ | 2020 M⁻¹ s⁻¹ |  |  |
| C=CC(=O)N1CC(N2CCC(c3cc4c(c(C)n3)O[C@@H](C)c3c(C5CCOCC5)ccnc3N4)CC2)C1 (single isomer, unassigned) [Compound 415] | 1820 nM | > 10000 nM |  | 2.22 µM | 7.43e-05 s⁻¹ | 33.5 M⁻¹ s⁻¹ |  |  |
| C=CC(=O)N1CC(N2CCC(c3cc(C#N)c4c(c3)Nc3nccc(C5CCOCC5)c3CO4)CC2)C1 [Compound 125] | 27.5 nM | 7240 nM | 1230 M⁻¹ s⁻¹ |  |  |  |  |  |
